Experimental data published in paper PMC6037779, “Repurposing drugs to target the malaria parasite unfolding protein response” (Scientific Reports, 2018).
Where two headings read alike, the source gives them in different places.

Legend:
[1] = system: Plasmodium falciparum 3D7; test: In vitro growth inhibition assay (SYBR Green I), strain 3D7; assay type: cell-based; settings: read-out: EC50, growth inhibition, P. falciparum 3D7
Method: (§1) A major goal of our study was to evaluate the drug target potential of P. falciparum GRP78, thus we evaluated the effect of the chaperone inhibition on the malaria parasite. Our approach took advantage of several GRP78 inhibitors (Fig. 3a) previously characterized against human cancer cell lines, which were commercially available[20],[24]–[27]. These compounds were tested against two different parasite strains with opposite sensitivity towards the antimalarial drug chloroquine, 3D7 (sensitive) and W2 (resistant). […] A synchronized P. falciparum culture, with over 80% ring forms, was used in the growth inhibition assay. Each strain was assayed at 0.5% parasitaemia and 1.5% hematocrit. A 190 µL aliquot of parasite culture was dispensed per well to microplates that were pre-dispensed with the compounds at various dilutions. […] Dilutions of GRP78 inhibitors and DHA were prepared in water with a final concentration of DMSO below 0.05% (v/v). […] After incubation, the plates were subject to a freeze-thaw cycle (−80 °C) and the parasite growth was quantified by the SYBR Green I method as previously described. Briefly, 100 µl of homogenized parasite culture was transferred into 96-well black plates. 100 µl of SYBR Green lysis buffer (2x SYBR Green I, 100 mM Tris-HCl pH 7.5, 10 mM EDTA, 0.016% Saponin and 1.6% Triton X-100) were added to each well. The plates were incubated at room temperature in darkness for 1 hour.
(§2) Growth inhibition experiments were conducted at least three times per compound. […] The statistical analysis was performed with the software Prism 7 (GraphPad Software, San Diego, CA).

Plasmodium falciparum W2 = test: In vitro growth inhibition assay (SYBR Green I), strain W2; assay type: cell-based; settings: read-out: EC50, growth inhibition, P. falciparum W2
Method: as §1, §2

PfGRP78-NBD = target: T1, PfGRP78-NBD (Plasmodium falciparum, UniProt Q05866); test: DSF thermal shift, PfGRP78-NBD; assay type: binding; settings: compound 0.5 mM; shifts above or below 1 °C significant
T1 construct: His-tag (pET28-MHL, TEV site) (N, cleaved yes); made in house; host or cells: E. coli BL21(DE3)
Method: The Plasmodium and human GRP78 NBD differences were further characterized by measuring their interaction with ATP, ADP, and several compounds referenced in the literature as GRP78 inhibitors (Fig. 3a). Initially, their binding was determined using a DSF (Differential Scanning Fluorimetry) assay. In this assay, an interaction between the chaperone and a compound was measured as a change in the protein’s melting temperature (Tm), by subtracting the Tm of the protein by itself to the melting value of the protein in the presence of the compound. Differences above or below 1 °C between the melting temperatures (ΔTm) were considered indicative of a protein-compound interaction. As expected, the Plasmodium GRP78 chaperone interacted with both ATP and ADP. Four of the six compounds tested had significant effects on protein thermal stability (Fig. 3b).
DSF screening was carried out using a CFX96 Touch Real-Time PCR Detection System (BioRad, California). The PfGRP78-FL, PfGRP78-NBD wild type and mutant, and human GRP78-NBD were buffered in 25 mM hepes pH 7.5, 250 mM NaCl and assayed in a 96-well format. […]. The concentration was optimized for each protein to avoid saturation of the fluorescence detector. The GRP78 inhibitors were used at a final concentration of 0.5 mM. SYPRO Orange (Life Technologies, USA) was added as a fluorescence probe in a dilution of 1:1000. The experiments were conducted between 18 °C to 90 °C at a heating rate of 1 °C per minute. The recorded fluorescence reads were fitted to the Boltzmann sigmoid function using DMAN software. The inflection point of each fitted curve is defined as the melting temperature (Tm). The observed temperature shift, ΔTm, was recorded as the difference between Tm of the protein with ligand minus Tm of the protein without ligand. Thermal shifts above or below 1 °C were considered significant.

PfGRP78-NBD wt = target: T2, PfGRP78-NBD wt (Plasmodium falciparum, UniProt Q05866); test: biochemical; assay type: binding
T2 construct: His-tag (pET28-MHL, TEV site) (N, cleaved yes); made in house; host or cells: E. coli BL21(DE3)
Method: (§3) To quantify the binding affinities of PfGRP78-NBD for the selected compounds, dissociation constants (Kd) were determined by surface plasmon resonance (SPR). […] Purified PfGRP78-FL, PfGRP78-NBD wild-type and mutant, and human GRP78-NBD were immobilized on a CM5 sensorchip using NHS/EDC coupling following the manufacturer protocol to a level of <10,000 RUs, a reference surfaces without immobilized proteins served as a control for nonspecific binding and refractive index changes. […] The running buffer was 10 mM HEPES, pH 7.4, 150 mM NaCl, 0.005% P20, 1% DMSO and 2 mM MgCl2. Buffer only injections were used as blanks. The Biacore responses recorded during the 30 seconds of the injection were used to estimate the association constant (kon) and the 300 seconds after the injection were used to estimate the dissociation constant (koff). All dissociation and kinetic constants were estimated using double subtracted sensorgrams[40] using BiaEvaluation Software (GE Healthcare). All the reported parasite dissociation constants (Kd) were estimated with affinity analysis, and all the reported human Kds were calculated from kinetic constants.

huGRP78-NBD [2] = target: T3, huGRP78-NBD (Homo sapiens, UniProt P11021); test: SPR (Biacore) binding to human GRP78-NBD
T3 construct: PfGRP78-NBD wild type and mutant, and human GRP78-NBD were buffered in 25 mM hepes pH 7.5
T3 sequence (P11021 26-407 limits assumed): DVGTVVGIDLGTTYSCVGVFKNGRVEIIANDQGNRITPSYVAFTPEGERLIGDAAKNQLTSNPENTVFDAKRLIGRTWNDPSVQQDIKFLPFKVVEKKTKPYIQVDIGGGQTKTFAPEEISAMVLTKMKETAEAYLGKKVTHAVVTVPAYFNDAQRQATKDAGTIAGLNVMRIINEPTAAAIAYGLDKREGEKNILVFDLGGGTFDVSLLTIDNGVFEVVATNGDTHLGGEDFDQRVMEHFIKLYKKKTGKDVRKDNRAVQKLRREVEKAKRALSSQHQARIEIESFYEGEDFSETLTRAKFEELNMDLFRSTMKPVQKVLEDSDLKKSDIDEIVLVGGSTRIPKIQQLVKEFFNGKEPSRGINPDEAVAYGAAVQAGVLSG
Method: as §3

HCT-116 = test: Growth inhibition of human cell line; assay type: cell-based
Method: as §2

PfGRP78-FL = target: T4, PfGRP78-FL (Plasmodium falciparum, UniProt Q05866, DEL449-452/N453V/P455G/Q454G/T226A); test: DSF thermal shift, PfGRP78 full-length; assay type: binding; settings: read-out: ΔTm (DSF), PfGRP78-FL
T4 construct: His-tag (TEV site) (N, cleaved yes); made in house; host or cells: E. coli BL21(DE3); gene synthesized by Life Technologies
Method: (§4) Initially, their binding was determined using a DSF (Differential Scanning Fluorimetry) assay. In this assay, an interaction between the chaperone and a compound was measured as a change in the protein’s melting temperature (Tm), by subtracting the Tm of the protein by itself to the melting value of the protein in the presence of the compound. Differences above or below 1 °C between the melting temperatures (ΔTm) were considered indicative of a protein-compound interaction.
(§5) DSF screening was carried out using a CFX96 Touch Real-Time PCR Detection System (BioRad, California). The PfGRP78-FL, PfGRP78-NBD wild type and mutant, and human GRP78-NBD were buffered in 25 mM hepes pH 7.5, 250 mM NaCl and assayed in a 96-well format. The final concentration of the protein sample was optimized between 0.05 and 0.2 mg/ml for each protein. The concentration was optimized for each protein to avoid saturation of the fluorescence detector. The GRP78 inhibitors were used at a final concentration of 0.5 mM. SYPRO Orange (Life Technologies, USA) was added as a fluorescence probe in a dilution of 1:1000.

huGRP78-NBD [3] = target: T3, huGRP78-NBD; test: DSF thermal shift, human GRP78-NBD; assay type: binding; settings: compound 0.5 mM
Method: as §4, §5

PfGRP78-NBD mut (Y39F) = target: T5, PfGRP78-NBD mut (Y39F) (Plasmodium falciparum, UniProt Q05866, Y39F); test: SPR (Biacore) binding to PfGRP78-NBD Y39F mutant; settings: ± standard error, 25 °C, read-out: affinity constant (Kd) determined by SPR, PfGRP78-NBD mut
T5 construct: His-tag (pET28-MHL, TEV site) (N, cleaved yes); made in house; host or cells: E. coli BL21(DE3)
Method: To quantify the binding affinities of PfGRP78-NBD for the selected compounds, dissociation constants (Kd) were determined by surface plasmon resonance (SPR). […] Purified PfGRP78-FL, PfGRP78-NBD wild-type and mutant, and human GRP78-NBD were immobilized on a CM5 sensorchip using NHS/EDC coupling following the manufacturer protocol to a level of <10,000 RUs, a reference surfaces without immobilized proteins served as a control for nonspecific binding and refractive index changes. Seven different concentrations of the ligands between 0.4 nM to 1 mM, were injected in triplicate over the sensor chip at 30 µL/min in random order. The running buffer was 10 mM HEPES, pH 7.4, 150 mM NaCl, 0.005% P20, 1% DMSO and 2 mM MgCl2. Buffer only injections were used as blanks. The Biacore responses recorded during the 30 seconds of the injection were used to estimate the association constant (kon) and the 300 seconds after the injection were used to estimate the dissociation constant (koff). All dissociation and kinetic constants were estimated using double subtracted sensorgrams[40] using BiaEvaluation Software (GE Healthcare). All the reported parasite dissociation constants (Kd) were estimated with affinity analysis, and all the reported human Kds were calculated from kinetic constants.

[4] = Plasmodium falciparum, 3D7, 72 h
[5] = Plasmodium falciparum, W2, 72 h
[6] = ± standard error, affinity analysis, 25 °C
[7] = ± standard error, calculated from kinetic constants, 25 °C

C=Cc1cc(OC)c2c(c1)c(=O)oc1c2cc(OC)c2c(O)ccc(C3OC(C(C)O)C(O)C3O)c21 (centres unmarked) [Gilvocarcin V]
EC50 [1, 4]: 20 ± 4 nM | EC50 (Plasmodium falciparum W2; [5]): 80 ± 40 nM | DSF effect on thermal stability of PfGRP78-NBD (PfGRP78-NBD): increased the thermal stability | affinity constant (Kd) determined by SPR, PfGRP78-NBD wt (PfGRP78-NBD wt; [6]): N.B. | affinity constant (Kd) determined by SPR, PfGRP78-NBD wt (PfGRP78-NBD wt; ± standard error, affinity analysis, 25 °C, listed as Gilvocarcin A): too weak to accurately determine its dissociation constant | affinity constant (Kd) determined by SPR, huGRP78-NBD (huGRP78-NBD [2]; [7]): N.B. | affinity constant (Kd) determined by SPR, huGRP78-NBD (huGRP78-NBD [2]; ± standard error, calculated from kinetic constants, 25 °C, listed as Gilvocarcin A): too weak to accurately determine its dissociation constant

CCN(CC)c1ncnc2c1ncn2[C@H]1O[C@@H](COP(=O)(O)OP(=O)(O)C(Br)(Br)P(=O)(O)O)[C@H](O)[C@@H]1O [ARL-67156]
DSF effect on thermal stability of PfGRP78-NBD (PfGRP78-NBD): non-binders | affinity constant (Kd) determined by SPR, PfGRP78-NBD wt (PfGRP78-NBD wt; [6]): N.B. | affinity constant (Kd) determined by SPR, huGRP78-NBD (huGRP78-NBD [2]; [7]): N.B.

CCN(CC)CCCC(C)Nc1ccnc2cc(Cl)ccc12 (centres unmarked) [CQ, chloroquine]
EC50 [1, 4]: 50 ± 11 nM | EC50 (Plasmodium falciparum W2; [5]): 230 ± 30 nM

CCn1c(=O)/c(=C2\Sc3ccccc3N2C)s/c1=C\c1cccc[n+]1CC [MKT-077]
EC50 [1, 4]: 70 ± 20 nM | EC50 (Plasmodium falciparum W2; [5]): 70 ± 30 nM | DSF effect on thermal stability of PfGRP78-NBD (PfGRP78-NBD): significant thermal destabilization | Kd (PfGRP78-NBD wt): 16400 ± 1700 nM | times more selective towards P. falciparum (HCT-116; HCT-116 vs P. falciparum EC50, Results text b30): 14 times | EC50 (HCT-116; Homo sapiens, HCT-116, read-out: EC50, growth inhibition, HCT-116): 980 ± 230 nM | ΔTm at 500 µM (PfGRP78-FL): 0.6 °C | DSF effect on thermal stability of human GRP78-NBD (huGRP78-NBD [3]): destabilized | Kd (huGRP78-NBD [2]): 16000 ± 170 nM

C[C@H]1[C@@H](O)O[C@@H]2O[C@@]3(C)CC[C@H]4[C@H](C)CC[C@@H]1[C@@]24OO3 [DHA]
EC50 ([1]; chloroquine-sensitive strain, 72 hours, average of three ± SD): 0.4 ± 0.07 nM | EC50 (Plasmodium falciparum W2; chloroquine-resistant strain, 72 hours, average of three ± SD): 0.1 ± 0.02 nM

CN(NC(=O)CC(=O)NN(C)C(=S)c1ccccc1)C(=S)c1ccccc1 [Elesclomol]
EC50 ([1]; Plasmodium falciparum, 3D7, chloroquine-sensitive strain, 72 hours, average of three ± SD): 50 ± 17 nM | EC50 (Plasmodium falciparum W2; Plasmodium falciparum, W2, chloroquine-resistant strain, 72 hours, average of three ± SD): 60 ± 10 nM | DSF effect on thermal stability of PfGRP78-NBD (PfGRP78-NBD): non-binders | affinity constant (Kd) determined by SPR, PfGRP78-NBD wt (PfGRP78-NBD wt; [6]): N.B. | affinity constant (Kd) determined by SPR, huGRP78-NBD (huGRP78-NBD [2]; [7]): N.B.

Nc1ncnc2c1ncn2[C@@H]1O[C@H](COP(=O)(O)OP(=O)(O)OP(=O)(O)O)[C@@H](O)[C@H]1O [ATP]
Kd (PfGRP78-NBD mut (Y39F)): 312000 ± 15000 nM | DSF effect on thermal stability of PfGRP78-NBD (PfGRP78-NBD): interacted | fold decrease in affinity of malaria chaperone compared to the human counterpart (PfGRP78-NBD wt; SPR Kd, PfGRP78-NBD vs huGRP78-NBD): 23 fold | Kd (PfGRP78-NBD wt; ± standard error, affinity analysis, 25 °C, read-out: affinity constant (Kd) determined by SPR, PfGRP78-NBD wt): 333000 ± 74000 nM | Kd (huGRP78-NBD [2]; ± standard error, calculated from kinetic constants, 25 °C, read-out: affinity constant (Kd) determined by SPR, huGRP78-NBD): 14000 ± 7000 nM

N#Cc1ccc(COCC2OC(n3c(NCc4ccc(Cl)c(Cl)c4)nc4c(N)ncnc43)C(O)C2O)cc1 (centres unmarked) [VER-155008]
EC50 [1, 4]: 82100 ± 49700 nM | EC50 (Plasmodium falciparum W2; [5]): 39500 nM | DSF effect on thermal stability of PfGRP78-NBD (PfGRP78-NBD): increased the thermal stability | Kd (PfGRP78-NBD wt): 164000 ± 13600 nM | EC50 (HCT-116; HCT-116, human cell line, average of three ± SD, read-out: EC50, growth inhibition, HCT-116): 15710 ± 70 nM
